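Following 48 hours of exposure in 96-well plates, responses at five concentrations were used to interpolate endpoints linearly. Here, GI50 denotes the concentration required for 50% inhibition of growth. Definition used: TGI = concentration required for complete inhibition of growth.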
Legend:
Experiment in all cases: NCI anticancer screen, dose series, 48 h
TK-10 renal = system: TK-10 renal
SNB-19 CNS = system: SNB-19 CNS
SR leukemia = system: SR leukemia
OVCAR-5 ovarian = system: OVCAR-5 ovarian
BT-549 breast = system: BT-549 breast
NCI-H522 lung = system: NCI-H522 lung
HS 578T breast = system: HS 578T breast
U251 CNS = system: U251 CNS
SK-MEL-5 melanoma = system: SK-MEL-5 melanoma
SF-295 CNS = system: SF-295 CNS

| Compound | GI50 (TK-10 renal) | TGI (TK-10 renal) | GI50 (SNB-19 CNS) | TGI (SNB-19 CNS) | GI50 (SR leukemia) | TGI (SR leukemia) | GI50 (OVCAR-5 ovarian) | TGI (OVCAR-5 ovarian) | GI50 (BT-549 breast) | TGI (BT-549 breast) | GI50 (NCI-H522 lung) | TGI (NCI-H522 lung) | GI50 (HS 578T breast) | TGI (HS 578T breast) | GI50 (U251 CNS) | TGI (U251 CNS) | GI50 (SK-MEL-5 melanoma) | TGI (SK-MEL-5 melanoma) | GI50 (SF-295 CNS) | TGI (SF-295 CNS) |
| --- | --- | --- | --- | --- | --- | --- | --- | --- | --- | --- | --- | --- | --- | --- | --- | --- | --- | --- | --- | --- |
| Fc1ccc2nc(-c3nc(-c4ccccc4)n4ccccc34)[nH]c2c1 | 3.25 µM | 6.72 µM | 2.37 µM | 6.22 µM | 4.45 µM | > 100 µM | 3.07 µM | 9.04 µM | 2.76 µM | 7.61 µM | 2.43 µM | 5.6 µM | 3.56 µM | 25 µM | 2.22 µM | 5.42 µM | 1.55 µM | 3.49 µM |  |  |
| c1ccc2c(CNCCN3CCNCC3)c3ccccc3c(CNCCN3CCNCC3)c2c1 | 19.7 µM | 79.8 µM | 20.7 µM | > 100 µM |  |  | 3.99 µM | 17.4 µM | 28.3 µM | 75.6 µM | 13 µM | 35.9 µM |  |  | 14.8 µM | 40.3 µM | 15.6 µM | 35.2 µM | 17.8 µM | 43.5 µM |
| COc1ccc(-c2c3c(N)c4c(nc3nc3c2c(C)nn3-c2ccccc2)CCCC4)cc1 |  |  | 10.8 µM | 26.8 µM | 1.84 µM | 5.01 µM | 10.1 µM | 23.2 µM | 17.2 µM | 33.8 µM | 2.91 µM | 12.2 µM | 12.5 µM | 37.2 µM | 1.72 µM | 3.56 µM | 1.84 µM | 3.85 µM | 10.1 µM | 23.3 µM |
| COC1=C(OC)C(=O)C(CCCCCCCCCCO)=C(C)C1=O | 16.6 µM | 30.6 µM | 14.8 µM | 31.3 µM | 3.18 µM | 19 µM | 10.7 µM | 25.5 µM | 12.7 µM | 25.9 µM | 11.2 µM | 35.3 µM | 18.3 µM | > 100 µM | 3.03 µM | 12.5 µM | 5.92 µM | 19.1 µM |  |  |
| Cc1ccc(Cl)cc1-n1c(C)nc2c(cnn2-c2ccnc3c(C(F)(F)F)cccc23)c1=O | > 100 µM | > 100 µM | > 100 µM | > 100 µM |  |  | > 100 µM | > 100 µM | > 100 µM | > 100 µM | > 100 µM | > 100 µM | > 100 µM | > 100 µM | > 100 µM | > 100 µM | > 100 µM | > 100 µM | > 100 µM | > 100 µM |

Source: PubChem BioAssay (NCI)
